Source: patent publication US20260130933A1, “PHARMACEUTICAL COMPOSITION FOR PREVENTION OR TREATMENT OF NEPHROPATHY AND/OR DIABETES MELLITUS, COMPRISING ENAVOGLIFLOZIN” (DAEWOONG PHARMACEUTICAL CO., LTD., priority 2022, published 2026)

Assay: Example 2: phase 3 trial, enavogliflozin 0.3 mg vs dapagliflozin 10 mg once a day for 24 weeks added to metformin in patients with type 2 diabetes (same efficacy, exploratory and safety endpoints)
Type: in vivo, human
Conditions: for Change from baseline in total cholesterol, ANCOVA LS mean difference / Change from baseline in Total cholesterol, ANCOVA LS mean (SE) / Change from baseline in Total cholesterol, Mean (SD) / Change from baseline in total cholesterol, Median / fasting Total cholesterol, Mean (SD) / fasting Total cholesterol, Median: modified per-protocol set 1; for Change from baseline in total cholesterol, ANCOVA LS mean difference / Change from baseline in FPG, ANCOVA LS mean difference / Change from baseline in HbA1c, ANCOVA LS mean difference / Change from baseline in body weight, ANCOVA LS mean difference / Change from baseline in fasting c-peptide, ANCOVA LS mean difference / Odds ratio for achieving HbA1c target of <6.5%, logistic regression model / Odds ratio for achieving therapeutic glycemic response, logistic regression model: enavogliflozin 0.3 mg vs dapagliflozin 10 mg
Experimental: Subjects who met the inclusion/exclusion criteria were administered a placebo of the clinical trial drug under single-blind (subject blinding) conditions during a 2-week run-in period while continuing to receive metformin. […] The randomized subjects were administered two tablets of the clinical trial drug for each administration group once a day, and then visited the institution at weeks 6, 12, 18, and 24 during the 24-week administration period to conduct efficacy and safety evaluations.
• 1. Change in HbA1c at week 24 after administration of clinical trial drug compared to Visit 2 (randomization)
• 1. Change in HbA1c at each time point of weeks 6, 12, and 18 after administration of clinical trial drug compared to Visit 2 (randomization) • 2. Change in FPG at each time point of weeks 6, 12, 18, and 24 after administration of clinical trial drug compared to Visit 2 (randomization) • 3. Proportion of subjects achieving HbA1c<7% at each time point of weeks 6, 12, 18, and 24 after administration of clinical trial drug • 4. Proportion of subjects achieving HbA1c<6.5% at each time point of weeks 6, 12, 18, and 24 after administration of clinical trial drug • 5. Proportion of subjects achieving therapeutic response (HbA1c change (HbA1c at Visit 2-HbA1c at each evaluation time point)>0.5% or HbA1c<7% at each evaluation time point compared to Visit 2 (randomization)) at each time point of weeks 6, 12, 18 and 24 after administration of clinical trial drug
• 1. Change in fasting c-peptide at each time point of weeks 6, 12, 18, and 24 after administration of clinical trial drug compared to Visit 2 (randomization) • 2. Change in body weight at each time point of weeks 6, 12, 18, and 24 after administration of clinical trial drug compared to Visit 2 (randomization) • 3. Change in fasting lipid concentration (total cholesterol, LDL-C, HDL-C, and triglycerides) at each time point of weeks 6, 12, 18, and 24 after administration of clinical trial drug compared to Visit 2 (randomization) • 4. Changes in systolic or diastolic blood pressure at each time point of weeks 6, 12, 18, and 24 after administration of clinical trial drug compared to Visit 2 (randomization) • 5. Changes in β-cell function and insulin resistance measured by HOMA-β and HOMA-IR at each time point of weeks 6, 12, 18, and 24 after administration of clinical trial drug compared to Visit 2 (randomization) • 6. Changes in renal function-related indicators (UACR, UGCR) measured by UACR at each time point of weeks 6, 12, 18, and 24 after administration of clinical trial drug compared to Visit 2 (randomization) • 7. Changes in obesity-related indicators (adiponectin, leptin) at each time point of weeks 6, 12, 18, and 24 after administration of clinical trial drug compared to Visit 2 (randomization)

[1] = Week 24, mPPS1, enavogliflozin minus dapagliflozin
[2] = Week 24, mPPS2, enavogliflozin minus dapagliflozin
[3] = week 6, enavogliflozin 0.3 mg, dapagliflozin 10 mg
[4] = week 6, per-protocol set, enavogliflozin 0.3 mg, dapagliflozin 10 mg
[5] = week 12, enavogliflozin 0.3 mg, dapagliflozin 10 mg
[6] = week 12, per-protocol set, enavogliflozin 0.3 mg, dapagliflozin 10 mg

## OC[C@H]1O[C@@H](c2cc(Cc3ccc(C4CC4)cc3)c(Cl)c3c2CCO3)[C@H](O)[C@@H](O)[C@@H]1O [Enavogliflozin, (2S,3R,4R,5S,6R)-2-(7-chloro-6 (4-cyclopropylbenzyl)-2,3-dihydrobenzofuran-4-yl)-6-(hydroxymethyl)tetrahydro-2H-pyran-3,4,5-triol]
Week 24, mPPS1
  Triglycerides, Mean (SD): 119.62(58.93) mg/dL
  Triglycerides, Median: 104.00 mg/dL
[1]
  HDL-C change from baseline, LS mean difference: -0.14 mg/dL
  LDL-C change from baseline, LS mean difference: 0.71 mg/dL
  triglycerides change from baseline, LS mean difference: 1.63 mg/dL
Week 24, mPPS2
  Diastolic blood pressure change from baseline, ANCOVA LS mean (SE): −5.41 mmHg
  Diastolic blood pressure change from baseline, Mean (SD): −5.40 mmHg
  Diastolic blood pressure change from baseline, Median: −6.00 mmHg
  Diastolic blood pressure, Mean (SD): 71.65 mmHg
  Diastolic blood pressure, Median: 71.00 mmHg
  Systolic blood pressure change from baseline, ANCOVA LS mean (SE): −5.93(1.01) mmHg
  Systolic blood pressure change from baseline, Mean (SD): −6.34(9.75) mmHg
  Systolic blood pressure change from baseline, Median: −5.00 mmHg
  Systolic blood pressure, Mean (SD): 123.38(12.55) mmHg
  Systolic blood pressure, Median: 122.00 mmHg
[2]
  diastolic blood pressure change from baseline, LS mean difference: −1.15 mmHg
  systolic blood pressure change from baseline, LS mean difference: 0.63 mmHg
Week 6
  FPG change from baseline, LS mean (SE): −28.07(2.14) mg/dL
  HOMA-IR change from baseline, LS mean (SE): −1.47(0.14)
  HOMA-β change from baseline, LS mean (SE): 7.22(5.44)
  HbA1c change from baseline, LS mean (SE): −0.68(0.04) % p
  LDL-C change from baseline, LS mean (SE): −0.09(1.89) mg/dL
  Subjects achieving HbA1c target of <7%: (53.68) %
  Subjects achieving HbA1c<6.5%: 12.63%
  Subjects achieving therapeutic response (HbA1c change >0.5% or HbA1c<7%): 78.95%
  UACR change from baseline, LS mean (SE): −12.75(10.48) g/kg
  UGCR change from baseline, LS mean (SE): 65.72(2.70) mg/mg
  diastolic blood pressure change from baseline, LS mean (SE): −2.75(0.69) mmHg
  fasting c-peptide change from baseline, LS mean (SE): −0.07(0.02) ng/ml
  leptin change from baseline, LS mean (SE): −2.43(0.46) ng/mL
  Change from baseline in total cholesterol, ANCOVA LS mean difference: -2.10 mg/dL
Week 6, vs dapagliflozin
  FPG change from baseline, LS mean difference: -4.27 mg/dL
  HDL-C change from baseline, LS mean difference: -0.49 mg/dL
  HOMA-IR change from baseline, LS mean difference: −0.16
  HOMA-β change from baseline, LS mean difference: 9.01
  HbA1c change from baseline, LS mean difference: −0.05 % p
  LDL-C change from baseline, LS mean difference: -4.29 mg/dL
  Odds ratio for achieving HbA1c<6.5%: 0.83
  Odds ratio for achieving HbA1c<7%: 1.06
  Odds ratio for achieving therapeutic response: 0.98
  UACR change from baseline, LS mean difference: −20.88
  UGCR change from baseline, LS mean difference: 15.62 mg/mg
  body weight change from baseline, LS mean difference: 0.04 kg
  diastolic blood pressure change from baseline, LS mean difference: −1.28 mmHg
  fasting c-peptide change from baseline, LS mean difference: 0.00 ng/mL
  leptin change from baseline, LS mean difference: -0.81 ng/mL
  systolic blood pressure change from baseline, LS mean difference: −0.58 mmHg
  total cholesterol change from baseline, LS mean difference: -2.10 mg/dL
  triglyceride change from baseline, LS mean difference: 18.76 mg/dL
Week 6, listed as enavogliflozin
  Subjects achieving HbA1c target of <7%: 53.68%
[3]
  Change from baseline in Total cholesterol, ANCOVA LS mean (SE): 4.77(2.19) mg/dL
  Change from baseline in Total cholesterol, Mean (SD): 4.34(17.75) mg/dL
  Change from baseline in total cholesterol, Median: 3.00 mg/dL
  fasting Total cholesterol, Mean (SD): 155.77(35.37) mg/dL
  fasting Total cholesterol, Median: 147.00 mg/dL
Week 6, per-protocol set
  Change from baseline in FPG, ANCOVA LS mean difference: -4.27 mg/dL
  Change from baseline in HbA1c, ANCOVA LS mean difference: −0.05 % p
  Change from baseline in body weight, ANCOVA LS mean difference: 0.04 kg
  Change from baseline in fasting c-peptide, ANCOVA LS mean difference: 0.00 ng/mL
  Odds ratio for achieving HbA1c target of <6.5%, logistic regression model: 0.83
  Odds ratio for achieving therapeutic glycemic response, logistic regression model: 0.98
[4]
  Change from baseline in FPG, ANCOVA LS mean (SE): -28.07 mg/dL
  Change from baseline in FPG, Mean (SD): -26.91 mg/dL
  Change from baseline in FPG, Median: -27.00 mg/dL
  Change from baseline in HbA1c, ANCOVA LS mean (SE): −0.68 % p
  Change from baseline in HbA1c, Mean (SD): −0.62 % p
  Change from baseline in HbA1c, Median: −0.57 % p
  Change from baseline in body weight, ANCOVA LS mean (SE): −1.56(0.20) kg
  Change from baseline in body weight, Mean (SD): −1.56(2.30) kg
  Change from baseline in body weight, Median: -1.70 kg
  Change from baseline in fasting c-peptide, ANCOVA LS mean (SE): −0.07(0.02) ng/mL
  Change from baseline in fasting c-peptide, Mean (SD): −0.06(0.19) ng/mL
  Change from baseline in fasting c-peptide, Median: -0.03 ng/mL
  FPG, Mean (SD): 118.44 mg/dL
  FPG, Median: 115.00 mg/dL
  HbA1c, Mean (SD): 7.13%
  HbA1c, Median: 6.98%
  Subjects achieving HbA1c target of <6.5%, (%): (12.63) %
  Subjects achieving therapeutic glycemic response, (%): (78.95) %
  body weight, Mean (SD): 68.61(11.27) kg
  body weight, Median: 67.30 kg
  fasting c-peptide, Mean (SD): 0.66(0.24) ng/mL
  fasting c-peptide, Median: 0.60 ng/mL
Week 12
  FPG change from baseline, LS mean (SE): −29.70(1.96) mg/dL
  HOMA-IR change from baseline, LS mean (SE): −1.58(0.17)
  HOMA-β change from baseline, LS mean (SE): 5.57(3.08)
  HbA1c change from baseline, LS mean (SE): −0.83(0.06) % p
  LDL-C change from baseline, LS mean (SE): 1.86(1.68) mg/dL
  Subjects achieving HbA1c target of <7%: (68.09) %
  Subjects achieving HbA1c<6.5%: 15.96%
  Subjects achieving therapeutic response (HbA1c change >0.5% or HbA1c<7%): 88.30%
  UACR change from baseline, LS mean (SE): −21.65(7.38) g/kg
  UGCR change from baseline, LS mean (SE): 64.70(2.58) mg/mg
  diastolic blood pressure change from baseline, LS mean (SE): −4.19(0.79) mmHg
  fasting c-peptide change from baseline, LS mean (SE): −0.08(0.02) ng/ml
  leptin change from baseline, LS mean (SE): −2.64(0.49) ng/mL
  Change from baseline in total cholesterol, ANCOVA LS mean difference: 3.01 mg/dL
Week 12, vs dapagliflozin
  FPG change from baseline, LS mean difference: 0.42 mg/dL
  HDL-C change from baseline, LS mean difference: 0.06 mg/dL
  HOMA-IR change from baseline, LS mean difference: 0.02
  HOMA-β change from baseline, LS mean difference: −3.17
  HbA1c change from baseline, LS mean difference: −0.03 % p
  LDL-C change from baseline, LS mean difference: 1.30 mg/dL
  Odds ratio for achieving HbA1c<6.5%: 0.51
  Odds ratio for achieving HbA1c<7%: 1.21
  Odds ratio for achieving therapeutic response: 2.04
  UACR change from baseline, LS mean difference: −18.27
  UGCR change from baseline, LS mean difference: 19.57 mg/mg
  body weight change from baseline, LS mean difference: -0.19 kg
  diastolic blood pressure change from baseline, LS mean difference: 0.16 mmHg
  fasting c-peptide change from baseline, LS mean difference: 0.01 ng/mL
  leptin change from baseline, LS mean difference: 0.07 ng/mL
  systolic blood pressure change from baseline, LS mean difference: 0.26 mmHg
  total cholesterol change from baseline, LS mean difference: 3.01 mg/dL
  triglyceride change from baseline, LS mean difference: 2.57 mg/dL
Week 12, listed as enavogliflozin
  Subjects achieving HbA1c target of <7%: 68.09%
[5]
  Change from baseline in Total cholesterol, ANCOVA LS mean (SE): 7.26(1.98) mg/dL
  Change from baseline in Total cholesterol, Mean (SD): 5.74(18.70) mg/dL
  Change from baseline in total cholesterol, Median: 6.00 mg/dL
  fasting Total cholesterol, Mean (SD): 157.39(31.50) mg/dL
  fasting Total cholesterol, Median: 150.00 mg/dL
Week 12, per-protocol set
  Change from baseline in FPG, ANCOVA LS mean difference: 0.42 mg/dL
  Change from baseline in HbA1c, ANCOVA LS mean difference: −0.03 % p
  Change from baseline in body weight, ANCOVA LS mean difference: -0.19 kg
  Change from baseline in fasting c-peptide, ANCOVA LS mean difference: 0.01 ng/mL
  Odds ratio for achieving HbA1c target of <6.5%, logistic regression model: 0.51
  Odds ratio for achieving therapeutic glycemic response, logistic regression model: 2.04
[6]
  Change from baseline in FPG, ANCOVA LS mean (SE): -29.70 mg/dL
  Change from baseline in FPG, Mean (SD): -27.74 mg/dL
  Change from baseline in FPG, Median: -26.00 mg/dL
  Change from baseline in HbA1c, ANCOVA LS mean (SE): −0.83 % p
  Change from baseline in HbA1c, Mean (SD): −0.77 % p
  Change from baseline in HbA1c, Median: −0.65 % p
  Change from baseline in body weight, ANCOVA LS mean (SE): −2.81(0.23) kg
  Change from baseline in body weight, Mean (SD): −2.78(2.48) kg
  Change from baseline in body weight, Median: -2.75 kg
  Change from baseline in fasting c-peptide, ANCOVA LS mean (SE): −0.08(0.02) ng/mL
  Change from baseline in fasting c-peptide, Mean (SD): −0.07(0.21) ng/mL
  Change from baseline in fasting c-peptide, Median: -0.07 ng/mL
  FPG, Mean (SD): 117.00 mg/dL
